Like-named read-outs stand apart in the source and are kept apart here.
How the values were obtained:
Type in all cases: cell-based
[1] = tested on: HCV 2b Rluc cells (NS5A chimeric genotype 2a JFH-1 replicon with genotype 2b MD2b-1 NS5A gene, M31 present); experiment: microbe, parasite or virus in culture; settings: Hepatitis C virus, read-out: 2b
Procedure, shortened: (§1)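 Replicon cells stably carrying the listed RLuc-encoding dicistronic replicons were seeded and treated with DMSO serial dilutions of compound (10 mM stocks) diluted into culture medium. After 72 h, cells were lysed and Renilla luciferase activity measured. EC50 was derived by non-linear regression.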

[2] = tested on: HCV 4a Rluc cells (NS5A chimeric genotype 1b Con1 replicon with genotype 4a NS5A gene); experiment: microbe, parasite or virus in culture; settings: Hepatitis C virus, read-out: 4a
Procedure, shortened: as §1

[3] = tested on: HCV 2a JFH-1 Rluc cells (dicistronic genotype 2a JFH-1 replicon, RLuc reporter); experiment: microbe, parasite or virus in culture; settings: Hepatitis C virus, read-out: 2a JFH
Procedure, shortened: (§2)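 Replicons used: genotype 1b Con1, 1a H77, 2a JFH-1, and a 2a JFH-1 chimera with J6-strain NS5A (M31 present), all dicistronic.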

[4] = tested on: HCV 3a RLuc cells (NS5A chimeric genotype 1b Con1 replicon with consensus genotype 3a NS5A gene); experiment: microbe, parasite or virus in culture; settings: Hepatitis C virus
Procedure, shortened: as §1

[5] = tested on: HCV 1a RLuc cells (dicistronic genotype 1a H77 replicon, RLuc reporter); experiment: microbe, parasite or virus in culture; settings: Hepatitis C virus, read-out: 1a
Procedure, shortened: as §2

[6] = tested on: HCV 1b RLuc cells (dicistronic genotype 1b Con1 replicon, RLuc reporter); experiment: microbe, parasite or virus in culture; settings: Hepatitis C virus, read-out: 1b (nM)
Procedure, shortened: as §2

[7] = tested on: HCV 2a Rluc cells (NS5A chimeric genotype 2a JFH-1 replicon with genotype 2a J6 strain NS5A gene, M31 present); experiment: HCV replicon reporter assay, genotype 2a J6 (M31 present); settings: Hepatitis C virus, read-out: 2a J6
Procedure, shortened: as §2

[8] = read-out: 3a, genotype 3a replicon
[9] = genotype 2a JFH-1 RLuc replicon

Row | SMILES | EC50 [1] [nM] | EC50 [2] [nM] | EC50 ([3]; genotype 2a JFH-1 replicon) [nM] | EC50 [4, 8] [nM] | EC50 ([5]; genotype 1a replicon) [nM] | EC50 [6] [nM] | EC50 [7] [nM] | EC50 ([3]; 72 h, Table 1, genotype 2a JFH-1 replicon, 72 hours) [nM] | EC50 ([4]; read-out: 3a, Table 1, genotype 3a NS5A chimeric replicon) [nM] | EC50 ([5]; 72 h, Table 1, genotype 1a H77 replicon, 72 hours) [nM] | EC50 ([6]; 72 h) [nM] | EC50 [3, 9] [nM] | EC50 ([4]; read-out: 3a, genotype 3a NS5A chimeric replicon) [nM] | EC50 ([5]; genotype 1a H77 RLuc replicon) [nM]
1 | COC[C@H]1C[C@@H](c2ncc(-c3ccc(-c4ccc5c(c4)OCc4nc([C@@H]6CCCN6C(=O)[C@@H](NC(=O)OC)C(C)C)[nH]c4-5)cc3)[nH]2)N(C(=O)[C@@H](NC(=O)OC)C(C)C)C1 [Example 458] | > 44 | 0.001 to 0.99 | 0.001 to 0.999 | 1 to 4.99 | 0.001 to 0.999 | 0.085 | > 44 |  |  |  |  |  |  | 
2 | COC(=O)N[C@H](C(=O)N1CCC[C@H]1c1nc2ccc3c4c(ccc3c2[nH]1)-c1ccc(-c2cnc([C@@H]3CCCN3C(=O)[C@H](NC(=O)OC)c3ccccc3)[nH]2)cc1CO4)C(C)C [Example 412] | 0.001 to 0.999 | 0.001 to 0.99 | 0.001 to 0.999 | 0.001 to 0.99 | 0.001 to 0.999 | 0.018 | 1 to 44 |  |  |  |  |  |  | 
3 | COC(=O)N[C@H](C(=O)N1CCC[C@H]1c1ncc(-c2cc3c4c(c2)OCc2cc(-c5cnc([C@@H]6CCCN6C(=O)[C@H](NC(=O)OC)c6ccccc6)[nH]5)cc(c2-4)OC3)[nH]1)C1CCOCC1 [Example 364] | 0.001 to 0.999 | 0.001 to 0.99 | 0.001 to 0.999 | 0.001 to 0.99 | 0.001 to 0.999 | 0.335 | 0.001 to 0.999 |  |  |  |  |  |  | 
4 | COC(=O)N[C@H](C(=O)N1CCC[C@H]1c1nc2ccc3cc(-c4ccc5c(ccc6nc([C@@H]7[C@H]8CC[C@H](C8)N7C(=O)[C@H](NC(=O)C7CC7)c7ccccc7)[nH]c65)c4)ccc3c2[nH]1)C(C)C [Example 455] | 0.001 to 0.999 | 0.001 to 0.99 | 0.001 to 0.999 | 0.001 to 0.99 | 0.001 to 0.999 | 0.029 | 0.001 to 0.999 |  |  |  |  |  |  | 
5 | COC1CN(C(C(=O)N2CCC[C@H]2c2ncc(-c3cc4c5c(c3)OCc3cc(-c6cnc([C@@H]7CCCN7C(=O)C(c7ccccc7)N7CC(OC)C7)[nH]6)cc(c3-5)OC4)[nH]2)c2ccccc2)C1 (some centres unmarked) [Example 444] | 1 to 44 | 1 to 4.99 | 0.001 to 0.999 | 0.001 to 0.99 | 1 to 44 | 1.76 | 1 to 44 |  |  |  |  |  |  | 
6 | COC(=O)N[C@H](C(=O)N1CCC[C@H]1c1ncc(-c2ccc3c4c(ccc3c2)-c2ccc(-c3cnc([C@@H]5CCCN5C(=O)[C@H](NC(=O)OC)c5ccccc5)[nH]3)cc2CO4)[nH]1)C(C)C [Example 1] | > 44 | 0.001 to 0.99 |  |  |  |  | > 44 | 0.001 to 0.999 | 0.001 to 0.99 | 0.001 to 0.999 | 0.008 |  |  | 
7 | COC(=O)N[C@H](C(=O)N1CCC[C@H]1c1nc2ccc3cc(-c4ccc5c(ccc6nc([C@@H]7[C@@H]8CC[C@@H](C8)N7C(=O)[C@H](NC(=O)OC)c7ccccc7)[nH]c65)c4)ccc3c2[nH]1)C(C)C [Example 429] | 1 to 44 | 0.001 to 0.99 | 0.001 to 0.999 | 0.001 to 0.99 | 0.001 to 0.999 | 0.033 | 1 to 44 |  |  |  |  |  |  | 
8 | CC(C)CC(=O)N[C@@H](C(=O)N1CCC[C@H]1c1ncc(-c2cc3c4c(c2)OCc2cc(-c5cnc([C@@H]6CCCN6C(=O)[C@H](NC(=O)CC(C)C)c6ccccc6)[nH]5)cc(c2-4)OC3)[nH]1)c1ccccc1 [Example 481] | 0.001 to 0.999 | 0.001 to 0.99 | 0.001 to 0.999 | 0.001 to 0.99 | 0.001 to 0.999 | 0.058 | 0.001 to 0.999 |  |  |  |  |  |  | 
9 | CC[C@H](C)[C@H](NC(=O)OC)C(=O)N1C[C@@H](COC)C[C@H]1c1ncc(-c2ccc3c(c2)COc2cc4c(ccc5nc([C@@H]6C[C@H](COC)CN6C(=O)[C@@H](NC(=O)OC)[C@@H](C)CC)[nH]c54)cc2-3)[nH]1 [Example 580] | 0.001 to 0.999 | 0.001 to 0.99 |  |  |  |  | 0.001 to 0.999 |  |  |  |  | 0.001 to 0.999 | 0.001 to 0.99 | 0.001 to 0.999
10 | CN(C)CCC(=O)N[C@@H](C(=O)N1CCC[C@H]1c1ncc(-c2cc3c4c(c2)OCc2cc(-c5cnc([C@@H]6CCCN6C(=O)[C@H](NC(=O)CCN(C)C)c6ccccc6)[nH]5)cc(c2-4)OC3)[nH]1)c1ccccc1 [Example 467] | > 44 | > 5 | > 44 | > 5 | > 44 |  | > 44 |  |  |  |  |  |  | 
11 | O=C([C@H](Nc1ncccn1)c1ccccc1)N1CCC[C@H]1c1ncc(-c2cc3c4c(c2)OCc2cc(-c5cnc([C@@H]6CCCN6C(=O)[C@H](Nc6ncccn6)c6ccccc6)[nH]5)cc(c2-4)OC3)[nH]1 [Example 463] | > 44 | > 5 | 1 to 44 | 1 to 4.99 | 1 to 44 |  | > 44 |  |  |  |  |  |  | 
12 | COC(=O)N[C@H](C(=O)N1CCC[C@H]1c1nc2ccc3cc(-c4ccc5c(ccc6nc([C@@H]7C[C@H](SC)CN7C(=O)[C@H](NC(=O)OC)c7ccccc7)[nH]c65)c4)ccc3c2[nH]1)C(C)C [Example 535] | 0.001 to 0.999 | 0.001 to 0.99 |  |  |  | 0.022 | 0.001 to 0.999 |  |  |  |  | 0.001 to 0.999 |  | 0.001 to 0.999
13 | CC[C@H](C)[C@H](NC(=O)OC)C(=O)N1[C@@H]2C[C@@H]2C[C@H]1c1nc2ccc3cc(-c4ccc5c(ccc6nc([C@@H]7C[C@H](COC)CN7C(=O)[C@H](NC(=O)OC)c7ccccc7)[nH]c65)c4)ccc3c2[nH]1 [Example 529] | 0.001 to 0.999 | 0.001 to 0.99 |  |  |  | 0.013 | 0.001 to 0.999 |  |  |  |  | 0.001 to 0.999 |  | 0.001 to 0.999
14 | COC(=O)N[C@H](C(=O)N1CCC[C@H]1c1ncc(-c2cc3c4c(c2)OCc2cc(-c5cnc([C@@H]6CCCN6C(=O)[C@H](NC(=O)C6CC6)c6ccccc6)[nH]5)cc(c2-4)OC3)[nH]1)C(C)C [Example 520] | 0.001 to 0.999 | 0.001 to 0.99 |  |  |  | 0.033 | 0.001 to 0.999 |  |  |  |  | 0.001 to 0.999 |  | 0.001 to 0.999
15 | CN1CCN(C(=O)N[C@@H](C(=O)N2CCC[C@H]2c2ncc(-c3cc4c5c(c3)OCc3cc(-c6cnc([C@@H]7CCCN7C(=O)[C@H](NC(=O)N7CCN(C)CC7)c7ccccc7)[nH]6)cc(c3-5)OC4)[nH]2)c2ccccc2)CC1 [Example 464] | > 44 | > 5 | 1 to 44 | 1 to 4.99 | > 44 |  | 1 to 44 |  |  |  |  |  |  | 
16 | COC[C@H]1C[C@@H](c2ncc(-c3ccc(-c4ccc(-c5cnc([C@@H]6C[C@H]7C[C@H]7N6C(=O)[C@H](NC(=O)C6CC6)c6ccccc6)[nH]5)cc4)cc3)[nH]2)N(C(=O)[C@@H](NC(=O)OC)C(C)C)C1 [Example 519] | 0.001 to 0.999 | 0.001 to 0.99 |  |  |  | 0.01 | 0.001 to 0.999 |  |  |  |  | 0.001 to 0.999 |  | 0.001 to 0.999
17 | COC[C@H]1C[C@@H](c2nc3ccc4cc(-c5ccc6c(ccc7nc([C@@H]8C[C@H]9C[C@H]9N8C(=O)[C@@H](NC(=O)OC)C(C)(C)C)[nH]c76)c5)ccc4c3[nH]2)N(C(=O)[C@H](NC(=O)C2CC2)c2ccccc2)C1 [Example 532] | 0.001 to 0.999 | 0.001 to 0.99 |  |  |  | 0.009 | 0.001 to 0.999 |  |  |  |  | 0.001 to 0.999 |  | 0.001 to 0.999
18 | COC(=O)N[C@H](C(=O)N1CCC[C@H]1c1ncc(-c2cc3c4c(c2)OCc2cc(-c5cnc([C@@H]6CCCN6C(=O)[C@H](NC(=O)c6ccccn6)c6ccccc6)[nH]5)cc(c2-4)OC3)[nH]1)C(C)C [Example 522] | 0.001 to 0.999 | 0.001 to 0.99 |  |  |  | 0.023 | > 44 |  |  |  |  | 0.001 to 0.999 |  | 0.001 to 0.999

Reference: patent US10344019B2 (priority 2010, dated 2019)
